Laboratory results: PMC10447463, “Data-mining unveils structure–property–activity correlation of viral infectivity enhancing self-assembling peptides” (Nature Communications, 2023)
Read-outs that look alike come from different tables or passages of the source.

Key:
[1] = assay type: physicochemical; conditions: for ThT Cat. / ThT-Fluorescence (categorical): ThT-active if fluorescence at least twice the control
Summary of the method: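 Fibrils (1 mg/mL solution) were mixed with 50 µM ThT in PBS for 15 min at RT, and fluorescence was read at λex 440/λem 488 nm against a PBS blank, as a triplicate mean ± SD. Zeta potential came from electrophoretic mobility (Smoluchowski) after 1 d aggregation at 1 mg/mL in PBS pH 7.4, diluted into 1 mM KCl.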

[2] = tested on: HIV-1 infection of TZM-bl cells; test: HIV-1 infectivity enhancement assay, β-galactosidase luminescence; assay type: cell-based; conditions: for Rel-EFC / Log10 Infection Rel EFC: 1.3 µM peptide; for Rel-EFC: infection relative to EF-C (QCKIKQIINMWQ = 1); for Log10 Infection Rel EFC: log10 of infection relative to EF-C; for Log Infectivity: Fig. S7 panel A (plotted against β-sheet content), Log10 infection relative to EF-C, asymmetric std dev errors; for Log Infectivity / Abs. Inf.: TZM-bl cells; for Log10 Infection Rel EF-C: HIV-1 infection of TZM-bl cells; for Log10 of Rel to EFC (Feb2021): Log10 of infection relative to EF-C; for Abs. Inf.: absolute HIV-1 infection signal, β-galactosidase luminescence
[3] = β-sheet content by ATR-FT-IR; assay type: physicochemical; conditions: for b -sheet / %: Fig. S7 panel A, β-sheet content by ATR-FT-IR
Summary of the method: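 In the conversion assay, unconverted peptide passing a 3 kDa membrane at 4 °C was labelled with fluorescamine alongside unfiltered PNF, both in DMSO, and read at 365/470 nm after 20 min at room temperature. β-sheet content relied on ATR FT-IR of lyophilized fibril powder.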

[4] = Log10 of infection rate relative to EF-C, Figure 3A source data
[5] = infection rate relative to EF-C, log10, data of Figure 2D
[6] = infection rate relative to EF-C, log10, source data of Figure 2C
[7] = ThT fluorescence category, 1 if Rel. ThT >2

Substance | Tht category (> 2 to blank = +) ([1]; Fig S10 panel D) | ThT Cat, ([1]; ThT category, 1 if Rel. ThT >2) | ThT Cat. ([1]; ThT category, 1 if Rel. ThT >2) | ThT Cat. / ThT-Fluorescence (categorical) [1] | Rel-EFC [2] | Log10 Infection Rel EFC [2] | Log Infectivity [2] | Log10 Infection Rel EF-C [2, 4] | Log10 Infection Rel EF-C [2, 5] | Log10 Infection Rel EF-C [2, 6] | Log10 of Rel to EFC (Feb2021) ([2]; all peptides of FigS16) | Log10 of Rel to EFC (Feb2021) ([2]; second listing, peptides with TEM 2cat 0) | Abs. Inf. [2] | b -sheet / % [3] | beta sheet ([3]; peptides with TEM 2cat 0) | Tht category (> 2 to blank = +) ([1]; FigS12 panel A) | ThT Cat, ([1]; FigS12 panel B) | ThT Cat. [1, 7]
KIKIQINMWWWQ | 0 (ThT-inactive (N-Fold <2)) | 0 (ThT-inactive (N-Fold <2)) | 0 (ThT-inactive (N-Fold <2)) | 0 (ThT-inactive (N-Fold <2)) | 2,75 | 0,44 | 0.4391 | 0.44 | 0.4391 | 0.4391 | 0.44 | 0.44 | 15400 | 47.92% | 48 | – | – | –
KIKIQIRGD | 1 (ThT. Cat is 1, if Rel. ThT >2) | 1 (ThT. Cat is 1, if Rel. ThT >2) | – | 1 (ThT. Cat is 1, if Rel. ThT >2) | 0,02 | -1,68 | -1.678 | -1.68 | -1.678 | -1.678 | – | – | – | 47.12% | – | 1 (ThT. Cat is 1, if Rel. ThT >2) | 1 (ThT. Cat is 1, if Rel. ThT >2) | 1 (ThT. Cat is 1, if Rel. ThT >2)
KIKIQIW | 1 (ThT. Cat is 1, if Rel. ThT >2) | 1 (ThT. Cat is 1, if Rel. ThT >2) | 1 (ThT. Cat is 1, if Rel. ThT >2) | 1 (ThT. Cat is 1, if Rel. ThT >2) | 0,14 | -0,85 | -0.8533 | -0.85 | -0.8533 | -0.8533 | -0.85 | – | 4280 | 49.1721% | – | – | – | –
KLKLKLQL | 0 (ThT-inactive (N-Fold <2)) | 0 (ThT-inactive (N-Fold <2)) | – | 0 (ThT-inactive (N-Fold <2)) | 0,1 | -1,01 | -1.009 | -1.01 | -1.009 | -1.009 | – | – | – | 42.3363% | – | 0 (ThT-inactive (N-Fold <2)) | 0 (ThT-inactive (N-Fold <2)) | 0 (ThT-inactive (N-Fold <2))
KLKLQLL | 0 (ThT-inactive (N-Fold <2)) | 0 (ThT-inactive (N-Fold <2)) | – | 0 (ThT-inactive (N-Fold <2)) | 0,01 | -2,16 | -2.156 | -2.16 | -2.156 | -2.156 | – | – | – | 39.56% | – | 0 (ThT-inactive (N-Fold <2)) | 0 (ThT-inactive (N-Fold <2)) | 0 (ThT-inactive (N-Fold <2))
KVKVQVV | 0 (ThT-inactive (N-Fold <2)) | 0 (ThT-inactive (N-Fold <2)) | – | 0 (ThT-inactive (N-Fold <2)) | 0,01 | -2,04 | -2.04 | -2.04 | -2.04 | -2.04 | – | – | – | 45.1% | – | 0 (ThT-inactive (N-Fold <2)) | 0 (ThT-inactive (N-Fold <2)) | 0 (ThT-inactive (N-Fold <2))
